Assay results taken from PMC9902381, “Binding and functional structure-activity similarities of 4-substituted 2,5-dimethoxyphenyl isopropylamine analogues at 5-HT2A and 5-HT2B serotonin receptors” (Frontiers in Pharmacology, 2023).
Like-named read-outs stand apart in the source and are kept apart here.

Assays:
[1] = target: T1, human 5-HT2B receptor (Homo sapiens, UniProt P41595); experiment: 5-HT2B receptor functional activity (agonist) using Ca2+ mobilization assay in Flp-In T-REx 293 cells; assay type: cell-based; conditions: for Maximal 5-HT effect: maximal effect relative to 5-HT = 100%; for Emax: Flp-In-T-REx-293, read-out: Maximal 5-HT effect; for agonist effect at 5-HT2B receptors: highest concentration examined (10,000 nM)
T1 construct: host or cells: Flp-In T-REx 293 cells (HEK 293)

[2] = target: human 5-HT2A; parameters: method as in Nelson et al., 1999; conditions: cloned human 5-HT2A vs [125I]DOI; ref Nelson et al., 1999; cited from earlier work
[3] = substituent constant; ref Hansch et al. 1973; cited from earlier work
[4] = target: rat 5-HT2; parameters: method as in Seggel et al., 1990; conditions: rat brain 5-HT2 vs [3H]ketanserin; ref Seggel et al., 1990; cited from earlier work
[5] = target: human 5-HT2B; parameters: method as in Nelson et al., 1999; conditions: human 5-HT2B vs [3H]5-HT; ref Nelson et al., 1999; cited from earlier work
[6] = system: human 5-HT2B receptors; parameters: method as in Porter et al. (1999); conditions: CHO cells, intracellular calcium; ref Porter et al. (1999); cited from earlier work
[7] = system: 5-HT2B receptor; parameters: method as in Huang et al. (2009); conditions: multiple functional assays; ref Huang et al. (2009); cited from earlier work
[8] = target: T1, human 5-HT2B receptor; experiment: 5-HT2B receptor antagonism of 10 nM 5-HT Ca2+ signal in Flp-In T-REx 293 cells; assay type: cell-based
Protocol: A stable cell line was generated expressing the human 5-HT2B receptor using the Flp-In T-REx system (Thermo Fisher) ([Younkin et al., 2016]; [Steele et al., 2021]). Briefly, 5-HT2B receptor coding plasmid was obtained from cDNA Resource Center (cat # HTR02B0000). The 5-HT2B receptor cDNA was subcloned into the pcDNA/FRT/TO expression plasmid, and was co-transfected with pOG44 plasmid (coding the Flp recombinase) in Flp-In T-REx 293 cells. Cells were selected using 100 μg/mL of hygromycin and resistant cells were expanded and stored in liquid N2 for later use. For experimentation, stable cell lines were plated in Matrigel-coated 96-well imaging plates in Dulbecco’s Modified Eagle Medium (DMEM) containing 10% fetal bovine serum (FBS) and 5% penicillin/streptomycin, and the medium was supplemented with doxycycline (1 μg/mL) to upregulate the expression of the receptor 3 days before the experiment. Then, cells were loaded with Fura 2-AM for 30 min in Ca^2+ imaging solution (IS) consistent of 130 NaCl, 4 KCl, 2 CaCl2, 1 MgCl2, 10 HEPES, 10 glucose (in mM, pH adjusted to 7.4). […] Three wells containing cells were analyzed for each concentration per experiment day. […] All data were processed used Fiji software by ImageJ2 which allowed manual selection of cells and measurement of fluorescence. […]

[9] = system: rat 5-HT2A; parameters: method as in Seggel et al., 1990; Glennon 2017; conditions: ref Seggel et al., 1990; Glennon 2017; cited from earlier work
[10] = agonist potency, Ca2+ mobilization, Hill slope 1.0
[11] = agonist potency, Ca2+ mobilization, Hill slope 1.0, read-out: h5-HT2B EC50

T1 sequence (P41595 whole entry): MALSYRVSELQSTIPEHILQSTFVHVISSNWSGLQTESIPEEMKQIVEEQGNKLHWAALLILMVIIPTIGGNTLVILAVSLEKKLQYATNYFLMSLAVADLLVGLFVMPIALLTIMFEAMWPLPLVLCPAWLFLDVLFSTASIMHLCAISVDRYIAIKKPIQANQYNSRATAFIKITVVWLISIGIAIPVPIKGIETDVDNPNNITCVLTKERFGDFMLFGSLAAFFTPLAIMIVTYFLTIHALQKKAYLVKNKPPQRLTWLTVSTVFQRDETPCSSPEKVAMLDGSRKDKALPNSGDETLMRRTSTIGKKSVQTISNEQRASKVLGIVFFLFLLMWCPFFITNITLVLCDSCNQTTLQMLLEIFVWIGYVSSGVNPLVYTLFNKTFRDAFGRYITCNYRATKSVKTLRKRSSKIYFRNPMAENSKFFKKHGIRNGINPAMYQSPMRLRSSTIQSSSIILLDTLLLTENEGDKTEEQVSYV

Row | SMILES | h5-HT2B pEC50 ± SEM [1, 10] | EC50 [1, 11] | Maximal 5-HT effect [1] | EC50 [1] | Emax [1] | h5-HT2A pKi [2] | σp (electronic character of 4-position substituent) [3] | r5-HT2 pKi [4] | h5-HT2B pKi [5] | π (lipophilic character of 4-position substituent) [3] | % of the effect of 5-HT at human 5-HT2B [6] | 5-HT2B receptor agonist action [7] | action on the 5-HT-mediated response at 5-HT2B [8] | agonist effect at 5-HT2B receptors [1] | rat 5-HT2A functional action [9] | potency relative to R (−) enantiomer at 5-HT2B ([1]; optical isomers of 2,5-DMA)
1 | COc1ccc(OC)c(C[C@@H](C)N)c1 (single isomer, unassigned) [R (−) enantiomer] | 5.49 ± 0.16 | 3240 nM | 87% |  |  |  |  |  |  |  |  |  |  |  |  | 
2 | COc1ccc(OC)c(CC(C)N)c1 (stereo not shown) [1a, 1-(2,5-dimethoxyphenyl)isopropylamine] |  |  |  | 3390 nM | 93% | 6.68 | 0 | 5.28 | 5.98 |  |  |  |  |  |  | 
3 | COc1cc(CC(C)N)c(OC)cc1F (stereo not shown) [1b] |  |  |  | 439 nM | 82% | 7.38 | 0.06 | 5.96 | 6.64 | 0.14 |  |  |  |  |  | 
4 | COc1cc(CC(C)N)c(OC)cc1Cl (stereo not shown) [1c] |  |  |  |  |  | 8.85 | 0.23 | 6.66 | 7.50 | 0.71 |  |  |  |  |  | 
5 | COc1cc(CC(C)N)c(OC)cc1Br (stereo not shown) [1d] |  |  |  | 8.7 nM | 70% | 9.22 | 0.23 |  | 7.53 | 0.86 | 69% |  |  |  |  | 
6 | COc1cc(CC(C)N)c(OC)cc1I (stereo not shown) [1e] |  |  | 71% | 37.2 nM |  |  | 0.18 | 7.72 | 7.70 | 1.12 | 65% | potent 5-HT2B receptor agonist |  |  |  | 
7 | COc1cc(OC)c(OC)cc1CC(C)N (stereo not shown) [1f] |  |  |  |  |  | 7.24 | -0.27 | 5.90 | 6.51 | -0.02 |  |  |  |  |  | 
8 | CCOc1cc(OC)c(CC(C)N)cc1OC (stereo not shown) [1g] |  |  |  | 557 nM | 70% | 7.14 | -0.24 | 5.66 | 6.12 | 0.38 |  |  |  |  |  | 
9 | COc1cc([N+](=O)[O-])c(OC)cc1CC(C)N (stereo not shown) [1h] |  |  |  | 89 nM | 77% | 8.26 | 0.78 | 6.52 | 6.78 | -0.28 |  |  |  |  |  | 
10 | COc1cc(CC(C)N)c(OC)cc1C#N (stereo not shown) [1i] |  |  |  |  |  | 7.34 | 0.66 | 5.62 | 6.11 | -0.57 |  |  |  |  |  | 
11 | CCCc1cc(OC)c(CC(C)N)cc1OC (stereo not shown) [1j] |  |  | 75% | 55 nM |  | 9.05 | -0.13 | 7.16 |  | 1.55 |  |  |  |  |  | 
12 | CCCCCCc1cc(OC)c(CC(C)N)cc1OC (stereo not shown) [1k] |  |  | 0% | > 10000 nM |  | 10.00 | -0.13 | 8.60 | 7.52 | 3.05 |  |  | behaved as antagonists | failed to produce an agonist effect | lack rat 5-HT2A agonist action and behave as antagonists | 
13 | COc1cc(C(C)(C)C)c(OC)cc1CC(C)N (stereo not shown) [1l] |  |  |  | 37.2 nM | 69% | 8.43 | -0.20 | 7.72 | 7.61 | 1.98 |  |  |  |  |  | 
14 | COc1cc(CC(C)N)c(OC)cc1Cc1ccccc1 (stereo not shown) [1m] |  |  |  | > 10000 nM | 0% | 9.40 | -0.09 | 8.15 | 7.64 | 2.01 |  |  | behaved as antagonists | failed to produce an agonist effect | lack rat 5-HT2A agonist action and behave as antagonists | 
15 | COc1ccc(OC)c(C[C@H](C)N)c1 [S (+)1a] | 6.32 ± 0.15 | 480 nM | 100% |  |  |  |  |  |  |  |  |  |  |  |  | about six times more potent
